Measurements: patent US8415469B2, “Compounds and methods for kinase modulation, and indications therefor” (Plexxikon Inc., priority 2005, dated 2013)

Assays:
Format in all cases: biochemical
Kit = target: T1, Kit (Homo sapiens, UniProt P10721); experiment: AlphaScreen kinase assay, Kit; conditions: read-out: IC50, activity toward kinase Kit
T1 construct: P1332.N6 BI PTP KIT M552-K948-X COD; His6 (N); made in house; host or cells: E. coli (PTP1B co-expressed)

FGFR1 = target: T2, FGFR1 (Homo sapiens, UniProt P11362, C488A/C584S); experiment: AlphaScreen kinase assay, FGFR1; conditions: read-out: IC50, activity toward kinase FGFR
T2 construct: P1351.pET N6 BI-PTP FGFR A458-E765-X C488A, C584S; made in house; host or cells: E. coli (PTP1B co-expressed)

B-Raf V600E = target: T3, B-Raf V600E (Homo sapiens, UniProt P15056, V600E); experiment: AlphaScreen kinase assay, B-Raf V600E; conditions: read-out: IC50, activity toward kinase B-Raf V600E
T3 construct: P4254. pFastBacBD-CDC37 BRAF D437-K722-X, V600E; His6 with pFastBac HT leader (TEV site) (N); made in house; host or cells: Sf9 (baculovirus; chaperone CDC37 co-expressed)
T3 sequence (P15056 with tags, fused parts or gaps V600E): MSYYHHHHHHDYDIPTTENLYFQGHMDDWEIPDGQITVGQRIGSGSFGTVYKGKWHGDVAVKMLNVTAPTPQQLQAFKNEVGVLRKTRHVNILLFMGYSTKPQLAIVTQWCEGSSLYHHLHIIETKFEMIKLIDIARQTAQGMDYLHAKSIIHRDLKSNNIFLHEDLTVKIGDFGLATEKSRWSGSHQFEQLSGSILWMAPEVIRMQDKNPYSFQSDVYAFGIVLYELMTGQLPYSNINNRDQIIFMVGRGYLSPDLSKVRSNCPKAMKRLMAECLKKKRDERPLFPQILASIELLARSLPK

T1 sequence (P10721 with tags, fused parts or gaps): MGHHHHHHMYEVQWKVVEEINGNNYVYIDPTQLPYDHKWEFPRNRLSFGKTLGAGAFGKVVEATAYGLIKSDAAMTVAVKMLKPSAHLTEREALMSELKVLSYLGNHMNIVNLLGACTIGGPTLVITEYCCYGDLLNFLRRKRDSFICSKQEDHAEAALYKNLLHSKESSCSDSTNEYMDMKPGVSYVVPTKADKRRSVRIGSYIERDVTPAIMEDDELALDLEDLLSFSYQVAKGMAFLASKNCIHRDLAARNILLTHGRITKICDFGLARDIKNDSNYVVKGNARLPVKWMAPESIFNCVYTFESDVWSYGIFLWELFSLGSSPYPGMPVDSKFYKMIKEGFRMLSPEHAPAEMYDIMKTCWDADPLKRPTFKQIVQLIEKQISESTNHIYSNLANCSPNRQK
T2 sequence (P11362 458-765 C488A/C584S): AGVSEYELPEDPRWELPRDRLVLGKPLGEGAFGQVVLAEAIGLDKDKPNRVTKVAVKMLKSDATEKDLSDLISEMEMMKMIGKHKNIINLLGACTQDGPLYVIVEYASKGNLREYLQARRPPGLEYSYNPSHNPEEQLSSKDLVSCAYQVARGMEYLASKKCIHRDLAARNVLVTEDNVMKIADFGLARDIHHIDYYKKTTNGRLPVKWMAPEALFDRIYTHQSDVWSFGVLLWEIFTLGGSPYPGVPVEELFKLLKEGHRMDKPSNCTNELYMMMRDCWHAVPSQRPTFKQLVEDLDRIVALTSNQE

SMILES	IC50 (Kit) [µM]	IC50 (FGFR1) [µM]	IC50 (B-Raf V600E) [µM]
c1ccc(Nc2cnc3[nH]ccc3c2)cc1 [Compound P-0384]	≤ 10		
c1ccc(Sc2c[nH]c3ncccc23)cc1 [Compound P-0626]	≤ 10		
COc1cccc(Cc2c[nH]c3ncc(-c4ccc(Cl)s4)cc23)c1 [Compound P-0658]	≤ 10	≤ 10	
O=[N+]([O-])c1c[nH]c2nccc(Cl)c12 [Compound P-1096]	≤ 10		
COc1ccc(Sc2c[nH]c3ncc(Cl)cc23)nc1 [Compound P-1574]	≤ 10		
COc1cccc(CCc2c[nH]c3ncc(-c4ccsc4)cc23)c1 [Compound P-0519]	≤ 10		
O=C(c1cc(OC(F)F)cc(OC(F)F)c1)c1c[nH]c2ncc(-c3ccccc3)cc12 [Compound P-1521, (3,5-Bis-difluoromethoxy-phenyl)-(5-phenyl-1H-pyrrolo[2,3-b]pyridin-3-yl)-methanone]	≤ 10		
COC(=O)c1cnc2[nH]ccc2c1 [Compound P-1543]	≤ 10		
O=C(c1cccc(OC(F)F)c1)c1c[nH]c2ncc(Br)cc12 [Compound P-1514, (5-Bromo-1H-pyrrolo[2,3-b]pyridin-3-yl)-(3-difluoromethoxy-phenyl)-methanone]	≤ 10		
O=C(c1ccc(Cl)nc1)c1c[nH]c2ncc(Br)cc12 [Compound P-0499]	≤ 10		
COc1cccc(Cc2c[nH]c3ncc(-c4ccccc4)cc23)c1 [Compound P-1084]	≤ 10		
Clc1ccc(-c2cnc3[nH]ccc3c2)cc1 [Compound P-0815]	≤ 10		
O=[N+]([O-])c1ccc(Sc2c[nH]c3ncc(Cl)cc23)nc1 [Compound P-1562]	≤ 10		
COc1cccc(C(=O)c2c[nH]c3ncc(Nc4ccccc4)cc23)c1 [Compound P-1120]		≤ 10	≤ 10
O=C(c1c(F)ccc(N(Cc2ccccc2)Cc2ccccc2)c1F)c1c[nH]c2ncc(-c3cccnc3)cc12 [Compound P-1074]		≤ 10	≤ 10

Next, values leading:

IC50 (Kit) [µM]	IC50 (FGFR1) [µM]	IC50 (B-Raf V600E) [µM]	SMILES
≤ 10	≤ 10		CCOc1cccc(Cc2c[nH]c3ncccc23)c1 [Compound P-0459]
≤ 10			CCCS(=O)(=O)Nc1ccc(F)c(C(OC)c2c[nH]c3ncc(Br)cc23)c1F (stereo not drawn) [Compound P-1275]
≤ 10			O=C(c1ccc(Cl)cc1Cl)c1c[nH]c2ncc(Br)cc12 [Compound P-1565]
≤ 10			O=C(c1ccc2c(c1)OC(F)(F)O2)c1c[nH]c2ncc(Br)cc12 [Compound P-1551, (5-Bromo-1H-pyrrolo[2,3-b]pyridin-3-yl)-(2,2-difluoro-benzo[1,3]dioxol-5-yl)-methanone]
≤ 10	≤ 10		O=C(c1ccccc1OCc1ccccc1)c1c[nH]c2ncc(Br)cc12 [Compound P-1382]
≤ 10	≤ 10		Cc1ccc(Cc2c[nH]c3ncccc23)cc1 [Compound P-0346]
≤ 10			O=C(c1cccc(OC(F)(F)F)c1)c1c[nH]c2ncc(-c3ccccc3)cc12 [Compound P-1408, (5-Phenyl-1H-pyrrolo[2,3-b]pyridin-3-yl)-(3-trifluoromethoxy-phenyl)-methanone]
≤ 10	≤ 10		CN(C)c1ccc(Cc2c[nH]c3ncccc23)cn1 [Compound P-0935]
≤ 10		≤ 10	O=C(c1ccc2nsnc2c1)c1c[nH]c2ncc(-c3cccnc3)cc12 [Compound P-0905]
	≤ 10	≤ 10	CC(C)(C)Oc1ccc(Cc2c[nH]c3ncccc23)cn1 [Compound P-0819]
	≤ 10	≤ 10	FC(F)(F)Oc1cccc(Cc2c[nH]c3nccc(Br)c23)c1 [Compound P-1123]
≤ 10			COc1cccc(CCc2c[nH]c3ncccc23)c1 [Compound P-0450]
≤ 10			COc1ccc(C(=O)c2c[nH]c3ncc(Br)cc23)c(F)c1 [Compound P-1320]
≤ 10			OCc1cccc(-c2c(CNCC(O)c3ccc(O)cc3)[nH]c3ncccc23)c1 (stereo not drawn) [Compound P-0554]
